The target in assay [1] is T1, full-length human JP2 (junctophilin-2) (Homo sapiens, UniProt Q9BR39).
T1 construct: gene JPH2; full-length, N-terminal MBP tag removed with PreScission protease; E. coli BL21; ~75 kDa on SDS/PAGE; stated as monomeric
T1 sequence (Q9BR39 1-696): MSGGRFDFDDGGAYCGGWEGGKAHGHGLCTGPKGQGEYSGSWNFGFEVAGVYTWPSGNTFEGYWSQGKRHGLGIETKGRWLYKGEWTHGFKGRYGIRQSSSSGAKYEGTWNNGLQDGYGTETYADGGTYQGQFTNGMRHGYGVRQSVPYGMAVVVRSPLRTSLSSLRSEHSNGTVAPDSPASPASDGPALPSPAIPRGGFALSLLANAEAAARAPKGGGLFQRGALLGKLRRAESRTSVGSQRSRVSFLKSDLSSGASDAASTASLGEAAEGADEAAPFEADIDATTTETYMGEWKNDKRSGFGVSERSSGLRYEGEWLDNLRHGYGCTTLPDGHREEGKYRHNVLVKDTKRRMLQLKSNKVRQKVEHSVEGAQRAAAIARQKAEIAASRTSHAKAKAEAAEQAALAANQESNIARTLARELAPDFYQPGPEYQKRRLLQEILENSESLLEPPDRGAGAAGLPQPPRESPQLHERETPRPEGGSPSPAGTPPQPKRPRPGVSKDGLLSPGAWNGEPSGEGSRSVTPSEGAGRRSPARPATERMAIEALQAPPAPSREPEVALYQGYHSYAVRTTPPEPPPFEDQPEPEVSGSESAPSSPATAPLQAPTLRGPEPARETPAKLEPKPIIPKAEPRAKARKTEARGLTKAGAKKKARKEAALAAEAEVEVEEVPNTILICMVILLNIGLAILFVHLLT
The assay can be described thus: protein-lipid overlay. The settings on record: weak binding.

Assay [2] concerns the target T1, full-length human JP2 (junctophilin-2). The assay can be described thus: QCM-D, supported lipid bilayer, one-site isotherm. The settings on record: read-out: DOPC/DOPE/POPC/DOPS (55:15:10:20, by vol.) JP2. The assay is classed as binding. The text has this: (§1) QCM-D, supported lipid bilayer, one-site isotherm on full-length human JP2 (junctophilin-2)
For assay [3], the target named is T2, full-length human JP2 (junctophilin-2) (Homo sapiens, UniProt Q9BR39, S101R).
T2 construct: gene JPH2; full-length, N-terminal MBP tag removed with PreScission protease; E. coli BL21; ~75 kDa on SDS/PAGE; stated as monomeric
T2 sequence (Q9BR39 1-696 S101R): T1 sequence (Q9BR39 1-696) with S101R
In words: QCM-D, supported lipid bilayer, one-site isotherm. It counts as binding. The settings on record: read-out: DOPC/DOPE/POPC/DOPS (55:15:10:20, by vol.) / S101R.
Source text: as §1

Assay [4] addresses T3, JP2^1–452 (N-terminal domain) (Homo sapiens, UniProt Q9BR39).
T3 construct: gene JPH2; N-terminal segment, residues 1-452, N-terminal MBP tag removed with PreScission protease; E. coli BL21; ~50 kDa on SDS/PAGE
T3 sequence (Q9BR39 1-452): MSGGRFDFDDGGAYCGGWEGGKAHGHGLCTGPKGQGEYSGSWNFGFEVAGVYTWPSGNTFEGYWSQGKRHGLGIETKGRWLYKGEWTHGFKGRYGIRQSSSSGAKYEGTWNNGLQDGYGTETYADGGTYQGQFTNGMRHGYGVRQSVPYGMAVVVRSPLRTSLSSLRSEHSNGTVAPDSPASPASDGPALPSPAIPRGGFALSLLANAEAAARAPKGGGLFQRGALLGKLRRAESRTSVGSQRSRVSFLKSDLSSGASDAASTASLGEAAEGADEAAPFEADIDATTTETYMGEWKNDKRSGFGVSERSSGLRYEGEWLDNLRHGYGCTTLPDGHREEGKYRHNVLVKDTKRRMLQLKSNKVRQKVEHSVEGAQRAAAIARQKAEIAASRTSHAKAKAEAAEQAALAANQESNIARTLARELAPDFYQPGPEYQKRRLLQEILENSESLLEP
The assay can be described thus: QCM-D, supported lipid bilayer, one-site isotherm. It counts as binding. The settings on record: read-out: DOPC/DOPE/POPC/DOPS (55:15:10:20, by vol.) / JP2^1-452. An excerpt:
QCM-D, supported lipid bilayer, one-site isotherm on JP2^1–452 (N-terminal domain)

Residue numbers refer to the chain shown, from its start.

Consider `CCCCCCCC/C=C\CCCCCCCC(=O)OC[C@H](COP(=O)(O)OCC(O)CO)OC(=O)CCCCCCC/C=C\CCCCCCCC` (stereo partly shown) [DOPG, 1,2-dioleoyl-sn-glycero-3-phosphoglycerol], for which the protein-lipid overlay entry in assay [1] is listed as “there is only weak binding of JP2 to DOPG”.

As for `CCCCCCCC/C=C\CCCCCCCC(=O)OC[C@H](COP(=O)(O)OC[C@H](N)C(=O)O)OC(=O)CCCCCCC/C=C\CCCCCCCC` [DOPS, 1,2-dioleoyl-sn-glycero-3-phospho-L-serine], the Kd in assay [2] was found to be 483 ± 54 nM; in assay [3], 371 ± 31 nM; in assay [4], 992 ± 80 nM.
